Literature values, collected in publication PMC6888386, “Identification of Novel 1,3,5-Triphenylbenzene Derivative Compounds as Inhibitors of Hen Lysozyme Amyloid Fibril Formation” (International Journal of Molecular Sciences, 2019).

System: HEWL
Set-up: method as in PMID 27597412
Settings: HEWL amyloid fibril formation; read-out: IC50 value of a representative bis(indolyl)phenylmethane; cited from earlier work

Substance: bis(indolyl)phenylmethane
- IC50: 12.3 ± 1 µM
